Laboratory results as given in patent US20120122860A1, “SOLID FORMS OF SULFONAMIDES AND AMINO ACIDS” (Plexxikon, Inc., priority 2009, published 2012).

Experiments:
B-Raf V600E = B-Raf V600E (Homo sapiens, UniProt P15056, V600E); test: Kinase activity assay, B-Raf V600E; type: biochemical; settings: read-out: activity toward kinase B-Raf V600E, IC50
A-Raf = biological target: T1, A-Raf (Homo sapiens, UniProt P10398); test: Kinase activity assay, A-Raf
T1 sequence (P10398 1-606): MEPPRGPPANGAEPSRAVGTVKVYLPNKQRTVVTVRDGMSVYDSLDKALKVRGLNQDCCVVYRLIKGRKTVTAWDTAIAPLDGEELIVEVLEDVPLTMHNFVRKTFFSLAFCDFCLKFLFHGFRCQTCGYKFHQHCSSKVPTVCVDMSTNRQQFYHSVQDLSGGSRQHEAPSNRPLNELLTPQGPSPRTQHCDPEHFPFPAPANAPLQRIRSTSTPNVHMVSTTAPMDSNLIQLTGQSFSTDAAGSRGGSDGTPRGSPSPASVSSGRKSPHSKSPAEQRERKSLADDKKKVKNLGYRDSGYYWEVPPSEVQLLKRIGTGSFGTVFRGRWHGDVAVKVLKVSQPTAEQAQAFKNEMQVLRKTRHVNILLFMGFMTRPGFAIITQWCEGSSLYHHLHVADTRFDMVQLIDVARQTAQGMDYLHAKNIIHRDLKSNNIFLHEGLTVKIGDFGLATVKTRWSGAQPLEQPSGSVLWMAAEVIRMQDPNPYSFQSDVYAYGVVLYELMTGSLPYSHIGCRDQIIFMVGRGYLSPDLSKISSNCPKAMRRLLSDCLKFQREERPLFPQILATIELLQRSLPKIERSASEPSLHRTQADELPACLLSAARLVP

Kdr = Kdr (Homo sapiens, UniProt P35968); test: Kinase activity assay, Kdr
C-Raf = C-Raf (Homo sapiens, UniProt P04049); test: Kinase activity assay, C-Raf
C-Raf, sequence (P04049 whole entry): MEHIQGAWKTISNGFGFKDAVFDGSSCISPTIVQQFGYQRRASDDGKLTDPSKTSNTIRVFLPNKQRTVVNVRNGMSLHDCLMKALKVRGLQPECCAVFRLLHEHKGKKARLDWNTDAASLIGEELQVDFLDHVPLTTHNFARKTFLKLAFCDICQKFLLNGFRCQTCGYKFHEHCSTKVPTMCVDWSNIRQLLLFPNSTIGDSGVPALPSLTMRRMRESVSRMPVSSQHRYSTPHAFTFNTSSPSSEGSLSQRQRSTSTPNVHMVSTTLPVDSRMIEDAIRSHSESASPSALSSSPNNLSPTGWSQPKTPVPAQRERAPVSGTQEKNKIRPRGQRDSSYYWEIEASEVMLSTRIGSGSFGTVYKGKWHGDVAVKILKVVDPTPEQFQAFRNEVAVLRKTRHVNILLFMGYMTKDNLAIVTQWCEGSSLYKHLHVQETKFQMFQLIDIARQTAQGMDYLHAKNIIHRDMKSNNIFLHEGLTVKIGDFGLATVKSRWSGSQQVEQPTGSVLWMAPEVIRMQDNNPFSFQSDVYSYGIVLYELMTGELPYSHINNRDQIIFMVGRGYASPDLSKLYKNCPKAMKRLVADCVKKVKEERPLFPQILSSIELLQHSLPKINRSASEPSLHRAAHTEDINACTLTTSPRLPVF

Src = Src (Homo sapiens, UniProt P12931); test: Kinase activity assay, Src
Src, sequence (P12931 whole entry): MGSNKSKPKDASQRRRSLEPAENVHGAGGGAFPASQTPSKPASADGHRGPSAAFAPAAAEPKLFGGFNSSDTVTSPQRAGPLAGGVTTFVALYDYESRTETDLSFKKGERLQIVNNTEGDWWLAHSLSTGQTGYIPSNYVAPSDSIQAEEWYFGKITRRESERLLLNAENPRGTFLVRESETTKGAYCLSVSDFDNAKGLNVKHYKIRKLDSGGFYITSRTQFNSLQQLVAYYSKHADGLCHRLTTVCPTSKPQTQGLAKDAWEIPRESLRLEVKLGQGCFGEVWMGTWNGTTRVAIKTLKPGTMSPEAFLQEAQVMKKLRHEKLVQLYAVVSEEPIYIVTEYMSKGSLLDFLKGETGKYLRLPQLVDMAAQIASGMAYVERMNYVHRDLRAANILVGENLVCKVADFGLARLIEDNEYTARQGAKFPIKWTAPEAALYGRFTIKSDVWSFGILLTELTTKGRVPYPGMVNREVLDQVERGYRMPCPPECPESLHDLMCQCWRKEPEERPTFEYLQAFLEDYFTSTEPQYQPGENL

Kit = Kit (Homo sapiens, UniProt P10721); test: Kinase activity assay, Kit
Kit, sequence (P10721 26-976): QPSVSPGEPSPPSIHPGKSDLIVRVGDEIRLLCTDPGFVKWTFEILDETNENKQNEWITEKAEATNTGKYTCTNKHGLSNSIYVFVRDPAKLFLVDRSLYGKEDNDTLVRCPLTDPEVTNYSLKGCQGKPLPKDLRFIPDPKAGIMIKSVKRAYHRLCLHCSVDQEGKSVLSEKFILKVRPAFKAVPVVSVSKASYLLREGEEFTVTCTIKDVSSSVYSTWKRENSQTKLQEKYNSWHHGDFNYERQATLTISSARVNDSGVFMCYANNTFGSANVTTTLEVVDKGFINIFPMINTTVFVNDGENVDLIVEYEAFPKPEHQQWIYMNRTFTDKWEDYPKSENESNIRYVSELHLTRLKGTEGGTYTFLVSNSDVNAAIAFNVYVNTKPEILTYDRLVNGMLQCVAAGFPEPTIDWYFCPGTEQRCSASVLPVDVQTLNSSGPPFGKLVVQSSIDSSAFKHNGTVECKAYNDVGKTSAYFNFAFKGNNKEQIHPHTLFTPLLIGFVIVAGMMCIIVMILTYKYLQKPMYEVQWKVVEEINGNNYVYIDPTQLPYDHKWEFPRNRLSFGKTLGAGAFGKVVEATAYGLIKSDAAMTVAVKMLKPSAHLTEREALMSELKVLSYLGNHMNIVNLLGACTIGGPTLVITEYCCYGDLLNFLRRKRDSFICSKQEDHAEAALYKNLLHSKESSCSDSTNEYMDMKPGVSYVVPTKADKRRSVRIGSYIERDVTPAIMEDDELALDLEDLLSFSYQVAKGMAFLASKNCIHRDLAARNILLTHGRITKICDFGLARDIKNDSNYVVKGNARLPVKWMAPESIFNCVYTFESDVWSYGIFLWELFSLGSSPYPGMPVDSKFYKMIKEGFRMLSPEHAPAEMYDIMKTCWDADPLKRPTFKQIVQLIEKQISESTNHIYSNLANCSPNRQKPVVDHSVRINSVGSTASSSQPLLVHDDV

B-Raf = B-Raf (Homo sapiens, UniProt P15056); test: Kinase activity assay, B-Raf; type: biochemical; settings: read-out: activity toward kinase B-Raf, IC50
B-Raf, sequence (P15056 whole entry): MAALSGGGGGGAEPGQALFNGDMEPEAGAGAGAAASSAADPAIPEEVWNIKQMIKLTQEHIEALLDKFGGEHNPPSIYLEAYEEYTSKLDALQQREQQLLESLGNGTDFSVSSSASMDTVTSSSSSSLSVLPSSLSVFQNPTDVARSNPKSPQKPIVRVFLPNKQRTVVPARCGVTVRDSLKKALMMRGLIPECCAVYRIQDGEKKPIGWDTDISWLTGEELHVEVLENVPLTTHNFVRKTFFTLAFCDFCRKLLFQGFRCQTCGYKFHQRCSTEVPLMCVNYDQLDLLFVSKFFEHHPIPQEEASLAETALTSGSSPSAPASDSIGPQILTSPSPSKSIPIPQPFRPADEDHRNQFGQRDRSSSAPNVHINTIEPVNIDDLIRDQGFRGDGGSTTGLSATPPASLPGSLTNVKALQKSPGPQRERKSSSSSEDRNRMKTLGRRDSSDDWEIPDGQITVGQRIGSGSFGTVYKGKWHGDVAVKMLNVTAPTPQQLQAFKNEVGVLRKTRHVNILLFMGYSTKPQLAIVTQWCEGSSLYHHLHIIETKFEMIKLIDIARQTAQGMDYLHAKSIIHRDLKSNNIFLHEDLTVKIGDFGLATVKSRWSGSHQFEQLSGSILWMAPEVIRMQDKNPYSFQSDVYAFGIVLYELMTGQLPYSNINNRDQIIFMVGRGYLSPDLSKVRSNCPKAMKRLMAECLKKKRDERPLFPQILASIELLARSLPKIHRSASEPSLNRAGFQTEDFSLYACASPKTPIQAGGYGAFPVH

Fms = Fms (Homo sapiens, UniProt P07333); test: Kinase activity assay, Fms
Fms, sequence (P07333 20-972): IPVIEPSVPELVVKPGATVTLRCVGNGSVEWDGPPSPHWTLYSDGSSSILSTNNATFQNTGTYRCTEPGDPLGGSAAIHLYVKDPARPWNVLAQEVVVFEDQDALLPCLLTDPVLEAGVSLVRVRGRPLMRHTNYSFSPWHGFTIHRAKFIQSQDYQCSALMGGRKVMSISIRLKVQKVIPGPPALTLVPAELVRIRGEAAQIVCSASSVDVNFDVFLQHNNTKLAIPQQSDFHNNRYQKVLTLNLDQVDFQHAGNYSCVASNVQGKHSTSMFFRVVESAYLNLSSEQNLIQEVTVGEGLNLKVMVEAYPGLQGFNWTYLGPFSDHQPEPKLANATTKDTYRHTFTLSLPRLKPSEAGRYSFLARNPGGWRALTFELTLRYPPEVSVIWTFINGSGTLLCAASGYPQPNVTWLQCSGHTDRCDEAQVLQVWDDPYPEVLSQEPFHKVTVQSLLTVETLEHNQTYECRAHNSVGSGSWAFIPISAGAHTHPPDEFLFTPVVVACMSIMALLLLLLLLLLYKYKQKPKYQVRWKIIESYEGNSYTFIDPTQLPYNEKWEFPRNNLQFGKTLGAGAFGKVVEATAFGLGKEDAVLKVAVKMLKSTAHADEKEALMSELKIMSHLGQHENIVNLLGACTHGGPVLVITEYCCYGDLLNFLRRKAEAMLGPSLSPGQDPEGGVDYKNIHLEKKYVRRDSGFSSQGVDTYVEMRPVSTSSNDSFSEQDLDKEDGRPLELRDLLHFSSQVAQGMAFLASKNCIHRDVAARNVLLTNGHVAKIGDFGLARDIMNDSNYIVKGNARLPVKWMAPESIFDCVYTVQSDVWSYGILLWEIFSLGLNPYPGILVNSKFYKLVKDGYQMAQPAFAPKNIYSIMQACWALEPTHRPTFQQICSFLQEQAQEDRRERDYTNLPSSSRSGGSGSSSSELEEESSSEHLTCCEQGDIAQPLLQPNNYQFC

Measured: IC50

B-Raf V600E, sequence (P15056 whole entry V600E): as the sequence (P15056 whole entry) above, with V600E counted along it

N#Cc1ccnc2[nH]cc(C(=O)c3c(F)ccc(NS(=O)(=O)c4c(F)cccc4F)c3F)c12 [P-2037, N-[3-(4-Cyano-1H-pyrrolo[2,3-b]pyridine-3-carbonyl)-2,4-difluoro-phenyl]-2,6-difluoro-benzenesulfonamide]
not listed: Fms
≤ 10 µM: all other assays above

N#Cc1ccnc2[nH]cc(C(=O)c3c(F)ccc(NS(=O)(=O)c4ccc(F)cc4F)c3F)c12 [P-2038, N-[3-(4-Cyano-1H-pyrrolo[2,3-b]pyridine-3-carbonyl)-2,4-difluoro-phenyl]-2,4-difluoro-benzenesulfonamide]
not listed: Fms
≤ 10 µM: all other assays above

O=C(c1cc(NS(=O)(=O)c2ccc(Cl)cc2)ccc1F)c1c[nH]c2ncccc12 [P-2113, 4-Chloro-N-[4-fluoro-3-(1H-pyrrolo[2,3-b]pyridine-3-carbonyl)-phenyl]-benzenesulfonamide]
≤ 10 µM: A-Raf | Kdr | Fms | Kit | B-Raf

O=C(c1cc(NS(=O)(=O)c2cccc(C(F)(F)F)c2)ccc1F)c1c[nH]c2ncccc12 [P-2115, N-[4-Fluoro-3-(1H-pyrrolo[2,3-b]pyridine-3-carbonyl)-phenyl]-3-trifluoromethyl-benzenesulfonamide]
≤ 10 µM: A-Raf | Kdr | Fms | Kit

O=C(c1cc(NS(=O)(=O)c2ccc(OC(F)(F)F)cc2)ccc1F)c1c[nH]c2ncccc12 [P-2116, N-[4-Fluoro-3-(1H-pyrrolo[2,3-b]pyridine-3-carbonyl)-phenyl]-4-trifluoromethoxy-benzenesulfonamide]
≤ 10 µM: A-Raf | C-Raf | Fms | Kit | B-Raf

O=C(c1cc(NS(=O)(=O)c2cccc(OC(F)(F)F)c2)ccc1F)c1c[nH]c2ncccc12 [P-2117, N-[4-Fluoro-3-(1H-pyrrolo[2,3-b]pyridine-3-carbonyl)-phenyl]-3-trifluoromethoxy-benzenesulfonamide]
not listed: B-Raf V600E | Src
≤ 10 µM: all other assays above

CCCS(=O)(=O)Nc1ccc(F)c(C(=O)c2c[nH]c3nccc(C#N)c23)c1F [P-2209, Propane-1-sulfonic acid [3-(4-cyano-1H-pyrrolo[2,3-b]pyridine-3-carbonyl)-2,4-difluoro-phenyl]-amide]
not listed: Fms
≤ 10 µM: all other assays above

CCCS(=O)(=O)Nc1ccc(F)c(C(=O)c2c[nH]c3ncc(C(=O)NOC)cc23)c1F [P-2238, 3-[2,6-Difluoro-3-(propane-1-sulfonylamino)-benzoyl]-1H-pyrrolo[2,3-b]pyridine-5-carboxylic acid methoxy-amide]
not listed: Fms
≤ 10 µM: all other assays above

CC(C)CS(=O)(=O)Nc1ccc(F)c(C(=O)c2c[nH]c3ncc(-c4ccc(Cl)cc4)cc23)c1F [P-2297, 2-Methyl-propane-1-sulfonic acid {3-[5-(4-chloro-phenyl)-1H-pyrrolo[2,3-b]pyridine-3-carbonyl]-2,4-difluoro-phenyl}-amide]
≤ 10 µM: A-Raf | C-Raf | Fms | Kit

COc1cnc2[nH]cc(C(=O)c3c(F)ccc(NS(=O)(=O)CC(C)C)c3F)c2c1 [P-2303, 2-Methyl-propane-1-sulfonic acid [2,4-difluoro-3-(5-methoxy-1H-pyrrolo[2,3-b]pyridine-3-carbonyl)-phenyl]-amide]
not listed: Fms
≤ 10 µM: all other assays above

Cc1cnc2[nH]cc(C(=O)c3c(F)ccc(NS(=O)(=O)CC(C)C)c3F)c2c1 [P-2305, 2-Methyl-propane-1-sulfonic acid [2,4-difluoro-3-(5-methyl-1H-pyrrolo[2,3-b]pyridine-3-carbonyl)-phenyl]-amide]
not listed: Fms
≤ 10 µM: all other assays above

COc1cnc2[nH]cc(C(=O)c3c(F)ccc(NS(=O)(=O)N4CCCC4)c3F)c2c1 [P-2374, Pyrrolidine-1-sulfonic acid [2,4-difluoro-3-(5-methoxy-1H-pyrrolo[2,3-b]pyridine-3-carbonyl)-phenyl]-amide]
not listed: Fms
≤ 10 µM: all other assays above

O=C(c1c(F)ccc(NS(=O)(=O)N2CCOCC2)c1F)c1c[nH]c2ncc(Cl)cc12 [P-2390, Morpholine-4-sulfonic acid [3-(5-chloro-1H-pyrrolo[2,3-b]pyridine-3-carbonyl)-2,4-difluoro-phenyl]-amide]
not listed: C-Raf | B-Raf
≤ 10 µM: all other assays above

O=C(c1c(F)ccc(NS(=O)(=O)N2CCCC2)c1F)c1c[nH]c2nccc(Cl)c12 [P-2398, Pyrrolidine-1-sulfonic acid [3-(4-chloro-1H-pyrrolo[2,3-b]pyridine-3-carbonyl)-2,4-difluoro-phenyl]-amide]
not listed: Fms
≤ 10 µM: all other assays above

CCCS(=O)(=O)Nc1ccc(F)c(C(=O)c2c[nH]c3ncccc23)c1 [P-2437, Propane-1-sulfonic acid [4-fluoro-3-(1H-pyrrolo[2,3-b]pyridine-3-carbonyl)-phenyl]-amide]
≤ 10 µM: B-Raf V600E | A-Raf | Kdr | Fms
